In publication PMC10824102, “Identification of small molecule inhibitors of G3BP-driven stress granule formation” (The Journal of Cell Biology, 2024):

What was measured:
[1] = target: T1, NTF2L domain of G3BP1 (Homo sapiens, UniProt Q13283); experiment: SPR binding of compounds to sensor-immobilized G3BP1; details: for Kd: equilibrium analysis, 1:1 binding model, 25°C, pH 7.4; for Kd of inactive enantiomer relative to active compound: SPR, same domain
T1 construct: made in house; host or cells: E. coli BL21 (DE3)
T1 sequence (Q13283 11-133 limits assumed): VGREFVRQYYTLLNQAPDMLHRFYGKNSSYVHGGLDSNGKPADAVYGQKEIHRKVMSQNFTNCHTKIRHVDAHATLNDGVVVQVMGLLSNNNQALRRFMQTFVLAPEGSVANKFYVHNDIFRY
Procedure: Binding affinity for G3BP1 was measured by SPR assay using a Biacore 8K instrument (Cytiva) at 25°C at pH 7.4 (20 mM Tris, 300 mM NaCl, 0.05% Tween-20, 2% DMSO) using neutravidin sensor chips. The binding of solution phase molecules was measured to sensor-bound biotinylated, AVI-tagged versions of the NTF2L domain of G3BP1. G3BP1 was captured on the sensor surface at the beginning of each experiment at a level of ∼1,000 RU. A neutravidin-only surface was used as a reference. Binding affinity was measured by equilibrium analysis of double-reference subtracted data performed at seven different analyte concentrations. A 1:1 binding model was used to estimate affinity; the maximum binding response was typically about 90% of the theoretical maximum for a 1:1 interaction given the size of the protein and analytes. Binding at the end of a 90-s association phase was measured; data were only used where equilibrium binding was reached. No regeneration was performed between binding cycles as all tested molecules dissociated completely from the sensor at the end of each cycle. Estimation of binding affinity by kinetic analysis was not performed as kinetic constants were beyond the range that could be reliably measured by the instrumentation.

[2] = target: T2, full-length 6x-His-tagged human G3BP1 (Homo sapiens, UniProt Q13283); experiment: Peptide displacement assay (Pep-FRET); format: binding; details: for IC50: displacement of FAM-labeled peptide probe, 60 min, room temperature; for displacement of FAM-labeled FGDF peptide from G3BP1: result in words, Fig. 1 C
T2 construct: 10 nM full-length 6x-His-tagged human G3BP1; made in house; host or cells: E. coli BL21 (DE3)
T2 sequence (Q13283 whole entry): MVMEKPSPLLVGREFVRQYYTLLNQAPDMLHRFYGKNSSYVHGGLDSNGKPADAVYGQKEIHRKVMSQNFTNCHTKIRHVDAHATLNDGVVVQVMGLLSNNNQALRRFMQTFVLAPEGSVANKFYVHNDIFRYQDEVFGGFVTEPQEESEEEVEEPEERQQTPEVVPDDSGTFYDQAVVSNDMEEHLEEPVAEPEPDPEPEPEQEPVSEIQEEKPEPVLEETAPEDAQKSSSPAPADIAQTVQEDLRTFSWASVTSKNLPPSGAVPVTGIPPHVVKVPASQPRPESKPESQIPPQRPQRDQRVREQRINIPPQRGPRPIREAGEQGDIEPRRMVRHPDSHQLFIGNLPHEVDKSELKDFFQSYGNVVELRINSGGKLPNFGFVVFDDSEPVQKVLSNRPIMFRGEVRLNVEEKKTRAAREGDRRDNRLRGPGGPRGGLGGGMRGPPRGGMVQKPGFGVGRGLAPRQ
Procedure: Peptide displacement assays were performed in 20 μl total volume at 25°C at pH 7.4 in buffer containing 20 mM Tris-HCl, pH 7.5, 100 mM NaCl, 0.01% bovine serum albumin, 1 mM DTT, and 0.005% Tween-20. 10 nM full-length 6x-His-tagged human G3BP1 was added to the reaction mix containing the test compound and 0.5 nM anti-His-Tb antibody (PerkinElmer). […] Assay plates were shaken for 30 s, then centrifuged for 30 s, and then incubated at room temperature for 60 min. Data were read on an EnVision Multilabel plate reader at 495/520 nm. HTRF ratios were calculated as described by PerkinElmer and IC50s were calculated using GraphPad Prism 9 software and the [Inhibitor] versus Response—Variable Slope (four parameter) fit equation.

[3] = test system: VCP A232E-induced stress granules in U2OS cells with tdTomato-tagged endogenous G3BP1; experiment: Dissolution of stress granules induced by GFP-VCP A232E expression; format: cell-based; details: 50 μM for 30 min; automated puncta tracking for G3Ia, manual blinded cell tracking for G3Ib
Procedure: U2OS cells with knock-in of G3BP1-tdTomato ([Yang et al., 2020]) were seeded into 96-well plates (3904; Corning). Either GFP-VCP-A232E or GFP-FUS-R495X were transfected into cells using ViaFect transfection reagent (Promega) 24 h prior to the start of the experiment. For samples to be treated with compounds G3Ia or G3Ia′, Hoechst (1:5,000; Biotium) was added and incubated for 30 min prior to the start of the experiment, washed once with PBS, and the media was changed to 100 μl FluoroBrite DMEM media (Gibco) upon starting the experiment. Imaging of plates was performed on a Cytation C10 spinning disk confocal (BioTek) with a Hamamatsu Orca-Flash 4.0 camera using Gen5 software (version 3.11). Imaging was performed through an Olympus Plan Apo 40× 0.6 NA dry objective with an adjustable collar set to 0.5 μm thickness. Laser autofocus prior to imaging the tdTomato channel was utilized for each image. The temperature was maintained at 37°C on the instrument and the cells were supplied with 5% CO2. A 7 × 7 tilescan was taken at the center of each well, capturing the tdTomato and GFP channels (and Hoechst when present). After completing the tilescan, 100 μl FluoroBrite with 100 μM (2×) G3I compound (vortexed for 5 s) was added to each well and incubated for 20 min before starting another round of imaging in the same locations as the first round. Samples treated with G3Ib or G3Ib′ were analyzed manually, scoring each cell with spontaneous granules for the presence or absence of granules following treatment with the compound. For experiments in which G3I compounds were pretreated prior to transfection, 50 μM of indicated compound or vehicle control were added to U2OS cells 20 min prior to the addition of the transfection reagent. […]
Samples treated with G3Ia or G3Ia′ were analyzed using an automated pipeline. […]

[4] = test system: G3BP1- and FUS R495X-positive puncta in U2OS cells with tdTomato-tagged endogenous G3BP1; experiment: Dissolution of puncta induced by FUS R495X expression; format: cell-based; details: for extraction of FUS R495X from granules: result in words; for G3BP1 puncta eliminated / reduction in number of puncta positive for FUS R495X: FUS R495X-transfected cells, 50 μM for 30 min
Procedure: U2OS cells with knock-in of G3BP1-tdTomato ([Yang et al., 2020]) were seeded into 96-well plates (3904; Corning). Either GFP-VCP-A232E or GFP-FUS-R495X were transfected into cells using ViaFect transfection reagent (Promega) 24 h prior to the start of the experiment. For samples to be treated with compounds G3Ia or G3Ia′, Hoechst (1:5,000; Biotium) was added and incubated for 30 min prior to the start of the experiment, washed once with PBS, and the media was changed to 100 μl FluoroBrite DMEM media (Gibco) upon starting the experiment. Imaging of plates was performed on a Cytation C10 spinning disk confocal (BioTek) with a Hamamatsu Orca-Flash 4.0 camera using Gen5 software (version 3.11). Imaging was performed through an Olympus Plan Apo 40× 0.6 NA dry objective with an adjustable collar set to 0.5 μm thickness. Laser autofocus prior to imaging the tdTomato channel was utilized for each image. The temperature was maintained at 37°C on the instrument and the cells were supplied with 5% CO2. A 7 × 7 tilescan was taken at the center of each well, capturing the tdTomato and GFP channels (and Hoechst when present). After completing the tilescan, 100 μl FluoroBrite with 100 μM (2×) G3I compound (vortexed for 5 s) was added to each well and incubated for 20 min before starting another round of imaging in the same locations as the first round. Samples treated with G3Ib or G3Ib′ were analyzed manually, scoring each cell with spontaneous granules for the presence or absence of granules following treatment with the compound. For experiments in which G3I compounds were pretreated prior to transfection, 50 μM of indicated compound or vehicle control were added to U2OS cells 20 min prior to the addition of the transfection reagent. After 24 h of transfection, the cells were washed with PBS, fixed in 4% formaldehyde, and incubated with Hoechst (1:5,000; Biotium) in PBS for 30 min prior to the start of the experiment, washed once with PBS, and at room temperature imaging on the Cytation C10 spinning disk confocal was performed as described above.
Samples treated with G3Ia or G3Ia′ were analyzed using an automated pipeline. Segmentation was performed in both ilastik and Cellpose 2.0. Nuclear segmentation using the Hoechst channel and granule segmentation in both GFP and tdTomato channels was performed via pixel classification in ilastik using small cropped portions of the tilescan as the training dataset for each. Individual cell segmentation was performed in Cellpose 2.0 by inputting a merged RGB of the Hoechst and G3BP1-tdTomato channels. The Cellpose output was then eroded by one pixel and set as a binary mask in Fiji. The original three raw channels, three output masks from ilastik, and the one mask generated from Cellpose were all inputted into CellProfiler to generate per-cell measurements for granules as defined by GFP or tdTomato.

SMILES | Kd [1] [µM] | IC50 [2] [µM] | displacement of FAM-labeled FGDF peptide from G3BP1 [2] | dissolution of VCP A232E-induced stress granules [3] [%] | extraction of FUS R495X from granules [4] | Kd of inactive enantiomer relative to active compound [1] [fold] | G3BP1 puncta eliminated [4] [%] | reduction in number of puncta positive for FUS R495X [4] [%]
CC(NC(=O)C(NC(=O)C(NC(=O)CCC(C)(C)C)C(C)(C)O)C(C)c1ccccc1)C(=O)N1CCCC1c1ccccc1 (centres unmarked) [G3Ib] | 0.15 | 0.7 | potently displaced | 69 | unable to extract FUS R495X from granules | – | – | –
CC(NC(=O)C(NC(=O)C(NC(=O)CCC(C)(C)C)C(C)(C)O)C(C)c1ccccc1)C(=O)N1CCCC1c1ccccc1 (centres unmarked) [G3Ib′] | 44.5 | > 50 | little effect | 6 | – | > 100 | – | –
COCCC(NC(=O)C(C)NC(=O)C(NC(=O)C(NC(=O)C(F)CC(C)(C)C)C(C)(C)O)C(C)c1ccccc1)C(=O)N(C)Cc1ccccc1 (centres unmarked) [G3Ia′] | 75.5 | > 50 | little effect | – | – | > 100 | 6 | 4
COCCC(NC(=O)C(C)NC(=O)C(NC(=O)C(NC(=O)C(F)CC(C)(C)C)C(C)(C)O)C(C)c1ccccc1)C(=O)N(C)Cc1ccccc1 (centres unmarked) [G3Ia] | 0.54 | 1.5 | potently displaced | 83 | unable to extract FUS R495X from granules | – | 92 | 3
